Assay results: patent US20120108431A1, “PLANT GROWTH REGULATOR ADDITIVE” (TAMINCO, NAAMLOZE VENNOOTSCHAP, priority 2009, published 2012)

Columns and labels:
Type in all cases: in vivo
[1] = system: Navy bean cv Primel; experiment: Navy bean Trial 2, pot trial, foliar spray at V2-V3; details: for Final Seed Yield at Harvest (g per pot): one plant per pot; for Rooting (0-9) + 28 Days: score 0-9, 28 days after spraying
[2] = system: Soybean; experiment: Soybean Trial 1, pot trial, foliar spray at V2-V3; details: for Final Seed Yield at Harvest (g per pot): one plant per pot; for Rooting (0-9) + 28 Days: score 0-9, 28 days after spraying
[3] = system: Winter wheat cv Limerick; experiment: Winter wheat Trial 3, pot trial, sprayed at GS23; details: for Total No of Shoots/Plant at GS33 / Total No of “Large” Shoots/Plant at GS33 / Rooting (0-9) + 28 Days / Final Seed Yield + % / Rooting + % / Total No of Shoots/Plant + % / Total No of “Large” Shoots/Plant + %: winter wheat pots; for Rooting (0-9) + 28 Days: score 0-9, 28 days after spraying; for Final Seed Yield + % / Rooting + % / Total No of Shoots/Plant + % / Total No of “Large” Shoots/Plant + %: increase over the line given as 0 (untreated or growth regulator alone); for Final Seed Yield at Harvest (g per pot): winter wheat, eight plants per pot
Experimental: The applied concentration of chemical can vary widely depending on the water volume applied to plants as well as other factors such as plant age and size, and plant sensitivity to the product. […] The rate of other components such as spreaders and stickers can be 50-200 ml per ha. C. […] Sprayed: 10 June, at GS23 (early-mid tillering). Plants were scored/assessed at GS33 on 12 July, with other measurements at crop maturity.

[4] = navy bean, increase over the line given as 0 (untreated or growth regulator alone)
[5] = soybean, increase over the line given as 0 (untreated or growth regulator alone)

CC(=O)Nc1ccc(O)cc1 [AC, N-(4-hydroxypheyl)acetamide]
No of Large Pod Bearing Branches/Plant at Harvest ([1]; navy bean): 1.0 | Final Seed Yield at Harvest (g per pot) ([1]; navy bean): 52.4 g per pot | Plant Biomass Score (0-9) at Harvest ([1]; navy bean): 5.2 | Rooting (0-9) + 28 Days ([1]; navy bean): 7.0 | Final Seed Yield + % [1, 4]: 8% | No of Large Pod Bearing Branches/Plant + % [1, 4]: 0% | Plant Biomass Score + % [1, 4]: 0% | Rooting + % [1, 4]: 0% | No of Large Pod Bearing Branches/Plant at Harvest ([2]; soybean): 1.0 | Final Seed Yield at Harvest (g per pot) ([2]; soybean): 34.0 g per pot | Plant Biomass Score (0-9) at Harvest ([2]; soybean): 5.2 | Rooting (0-9) + 28 Days ([2]; soybean): 4.2 | Final Seed Yield + % [2, 5]: 2% | No of Large Pod Bearing Branches/Plant + % [2, 5]: 0% | Plant Biomass Score + % [2, 5]: 0% | Rooting + % [2, 5]: 0% | Total No of Shoots/Plant at GS33 [3]: 3.0 | Total No of “Large” Shoots/Plant at GS33 [3]: 2.0 | Rooting (0-9) + 28 Days [3]: 5.4 | Final Seed Yield + % [3]: 0% | Rooting + % [3]: 0% | Total No of Shoots/Plant + % [3]: 0% | Total No of “Large” Shoots/Plant + % [3]: 0% | Final Seed Yield at Harvest (g per pot) [3]: 33.9 g per pot

Nc1ccccc1C(=O)O [AN, anthranilic acid]
Final Seed Yield + % ([1]; in vivo): 7% | Rooting + % ([1]; in vivo): 3% | No of Large Pod Bearing Branches/Plant at Harvest ([1]; navy bean): 1.0 | Final Seed Yield at Harvest (g per pot) ([1]; navy bean): 52.0 g per pot | Plant Biomass Score (0-9) at Harvest ([1]; navy bean): 5.2 | Rooting (0-9) + 28 Days ([1]; navy bean): 7.2 | No of Large Pod Bearing Branches/Plant + % [1, 4]: 0% | Plant Biomass Score + % [1, 4]: 0% | Final Seed Yield + % ([2]; in vivo): 5% | Rooting + % ([2]; in vivo): 2% | No of Large Pod Bearing Branches/Plant at Harvest ([2]; soybean): 1.0 | Final Seed Yield at Harvest (g per pot) ([2]; soybean): 34.8 g per pot | Plant Biomass Score (0-9) at Harvest ([2]; soybean): 5.2 | Rooting (0-9) + 28 Days ([2]; soybean): 4.3 | No of Large Pod Bearing Branches/Plant + % [2, 5]: 0% | Plant Biomass Score + % [2, 5]: 0% | Total No of Shoots/Plant at GS33 [3]: 3.0 | Total No of “Large” Shoots/Plant at GS33 [3]: 2.0 | Rooting (0-9) + 28 Days [3]: 5.4 | Final Seed Yield + % [3]: 0% | Rooting + % [3]: 0% | Total No of Shoots/Plant + % [3]: 0% | Total No of “Large” Shoots/Plant + % [3]: 0% | Final Seed Yield at Harvest (g per pot) [3]: 33.6 g per pot

CC1(C)CCC(Cc2ccc(Cl)cc2)C1(O)Cn1cncn1 (stereo not drawn) [MET2, Metconazole]
No of Large Pod Bearing Branches/Plant at Harvest ([1]; navy bean): 1.2 | Final Seed Yield at Harvest (g per pot) ([1]; navy bean): 57.4 g per pot | Plant Biomass Score (0-9) at Harvest ([1]; navy bean): 5.1 | Rooting (0-9) + 28 Days ([1]; navy bean): 7.0 | Final Seed Yield + % [1, 4]: 0% | No of Large Pod Bearing Branches/Plant + % [1, 4]: 0% | Plant Biomass Score + % [1, 4]: 0% | Rooting + % [1, 4]: 0% | No of Large Pod Bearing Branches/Plant at Harvest ([2]; soybean): 1.0 | Final Seed Yield at Harvest (g per pot) ([2]; soybean): 36.6 g per pot | Plant Biomass Score (0-9) at Harvest ([2]; soybean): 6.0 | Rooting (0-9) + 28 Days ([2]; soybean): 5.2 | Final Seed Yield + % [2, 5]: 0% | No of Large Pod Bearing Branches/Plant + % [2, 5]: 0% | Plant Biomass Score + % [2, 5]: 0% | Rooting + % [2, 5]: 0% | Total No of Shoots/Plant at GS33 [3]: 3.8 | Total No of “Large” Shoots/Plant at GS33 [3]: 2.6 | Rooting (0-9) + 28 Days [3]: 6.0 | Final Seed Yield + % [3]: 0% | Rooting + % [3]: 0% | Total No of Shoots/Plant + % [3]: 0% | Total No of “Large” Shoots/Plant + % [3]: 0% | Final Seed Yield at Harvest (g per pot) [3]: 36.0 g per pot

CC1(C)CCC(Cc2ccc(Cl)cc2)C1(O)Cn1cncn1 (stereo not drawn) [MET, Metconazole]
No of Large Pod Bearing Branches/Plant at Harvest ([1]; navy bean): 1.2 | Final Seed Yield at Harvest (g per pot) ([1]; navy bean): 57.2 g per pot | Plant Biomass Score (0-9) at Harvest ([1]; navy bean): 5.2 | Rooting (0-9) + 28 Days ([1]; navy bean): 7.0 | Final Seed Yield + % [1, 4]: 0% | No of Large Pod Bearing Branches/Plant + % [1, 4]: 0% | Plant Biomass Score + % [1, 4]: 0% | Rooting + % [1, 4]: 0% | No of Large Pod Bearing Branches/Plant at Harvest ([2]; soybean): 1.1 | Final Seed Yield at Harvest (g per pot) ([2]; soybean): 36.6 g per pot | Plant Biomass Score (0-9) at Harvest ([2]; soybean): 6.0 | Rooting (0-9) + 28 Days ([2]; soybean): 5.2 | Final Seed Yield + % [2, 5]: 0% | No of Large Pod Bearing Branches/Plant + % [2, 5]: 0% | Plant Biomass Score + % [2, 5]: 0% | Rooting + % [2, 5]: 0% | Total No of Shoots/Plant at GS33 [3]: 3.8 | Total No of “Large” Shoots/Plant at GS33 [3]: 2.6 | Rooting (0-9) + 28 Days [3]: 6.0 | Final Seed Yield + % [3]: 0% | Rooting + % [3]: 0% | Total No of Shoots/Plant + % [3]: 0% | Total No of “Large” Shoots/Plant + % [3]: 0% | Final Seed Yield at Harvest (g per pot) [3]: 36.2 g per pot

CCOC(=O)C1CC(=O)C(=C(O)C2CC2)C(=O)C1 (stereo not drawn) [MOD, Trinexapac-ethyl]
No of Large Pod Bearing Branches/Plant at Harvest ([1]; navy bean): 1.2 | Final Seed Yield at Harvest (g per pot) ([1]; navy bean): 56.1 g per pot | Plant Biomass Score (0-9) at Harvest ([1]; navy bean): 5.6 | Rooting (0-9) + 28 Days ([1]; navy bean): 7.2 | Final Seed Yield + % [1, 4]: 0% | No of Large Pod Bearing Branches/Plant + % [1, 4]: 0% | Plant Biomass Score + % [1, 4]: 0% | Rooting + % [1, 4]: 0% | No of Large Pod Bearing Branches/Plant at Harvest ([2]; soybean): 1.0 | Final Seed Yield at Harvest (g per pot) ([2]; soybean): 36.2 g per pot | Plant Biomass Score (0-9) at Harvest ([2]; soybean): 6.2 | Rooting (0-9) + 28 Days ([2]; soybean): 4.4 | Final Seed Yield + % [2, 5]: 0% | No of Large Pod Bearing Branches/Plant + % [2, 5]: 0% | Plant Biomass Score + % [2, 5]: 0% | Rooting + % [2, 5]: 0% | Total No of Shoots/Plant at GS33 [3]: 3.8 | Total No of “Large” Shoots/Plant at GS33 [3]: 2.6 | Rooting (0-9) + 28 Days [3]: 6.4 | Final Seed Yield + % [3]: 0% | Rooting + % [3]: 0% | Total No of Shoots/Plant + % [3]: 0% | Total No of “Large” Shoots/Plant + % [3]: 0% | Final Seed Yield at Harvest (g per pot) [3]: 35.4 g per pot
